Assay results reported in ChEMBL document CHEMBL1155378, “Design, synthesis, and evaluation of indole compounds as novel inhibitors targeting Gp41” (Bioorg Med Chem Lett, 2010).

Tests used:
[1] = Displacement of C18-Aib-lucifer yellow from HIV1 envelope glycoprotein gp41 Fe(env2.0)3 by fluorescence assay; set-up: species or system Human immunodeficiency virus 1
[2] = Inhibition of HIV1 envelope glycoprotein 41-mediated membrane fusion between virus-transfected human HL2/3 cells and human TZM-bl cells after 6 hrs by fluorescence-based cell-cell fusion assay; set-up: species or system Human immunodeficiency virus 1
[3] = Cytotoxicity against human HL2/3 cells after 24 hrs by XTT proliferation assay; type: cell-based; settings: hl2/3, 24 h
[4] = system: Human immunodeficiency virus 1; assay: Inhibition of HIV1 envelope glycoprotein gp41 by cell-cell fusion assay
[5] = Inhibition of HIV1 envelope glycoprotein gp41; set-up: species or system Human immunodeficiency virus 1

O=C(O)c1cccc(Cc2ccc(F)cc2)c1
Ki [1]: 548 µM
IC50 [2]: 560 µM

O=C(O)c1cccc(Cc2ccc3ccn(-c4cccc(C(=O)O)c4)c3c2)c1
CC50 [3]: > 400 µM
Ki [1]: 107 µM

COc1ccc(S(=O)(=O)O)cc1/N=N/c1c(S(=O)(=O)O)cc2cc(Nc3nc(Nc4ccccc4)nc(Nc4cc(C)c(/N=N/c5cc(S(=O)(=O)O)cc6cc(S(=O)(=O)O)cc(O)c56)cc4OC)n3)ccc2c1O
INH [4]: 4.2 µM
IC50 [5]: 0.62 µM

O=C(O)c1cccc(Cc2ccc3ccn(Cn4ccc5ccc(Cc6cccc(C(=O)O)c6)cc54)c3c2)c1
CC50 [3]: 80 µM

COc1ccc(Cn2ccc3ccc(Cc4cccc(C(=O)O)c4)cc32)cc1
CC50 [3]: 100 µM

Cc1ccc(C2=NNC3C=CC4C(C(F)(F)F)=CC(C(F)(F)F)=NC4N23)cc1 (stereo not given)
IC50 [2]: 18 µM

COc1cccc(-n2ccc3ccc(Cc4cccc(C(=O)O)c4)cc32)c1
CC50 [3]: > 100 µM
